Legend:
HL60 cells = HL60 cells orthotopically engrafted (i.v.) into NSG mice; format: in vivo; settings: for reduction of the number of HL60 cells in bone marrow and brain / reduction of HL60 cell viability in bone marrow and brain: 16 days; for reduction of HL60 cell viability in bone marrow and brain: Annexin-V
Method: The engraftment of human primary AML cells was performed on NSG mice. Briefly, human primary AML cells, HL60 cells or normal CD34+ cells were resuspended in PBS, and 0.8 × 10^6 to 2 × 10^6 viable trypan blue-negative cells were injected intravenously into NSG mice that had been previously irradiated for 24 h with 2.25 Gy. […] The viability of AML cells was established by quantifying the percentage of hCD45+CD33+Annexin-V- cells.

SKMEL-28 tumors = experiment: SKMEL-28 melanoma xenograft; format: in vivo, mice; settings: human SKMEL-28; i.p. 20 mg/kg/day
Method: Exponentially growing cells were harvested, washed twice in PBS then resuspended in PBS. SKMEL-28, shSKMEL-28 clones (5 × 10^6 cells) and B16F10 (3 × 10^5) cells were injected subcutaneously (s.c.) into the flank of nude mice. HL60, KG1 and shKG1-clones (5 × 10^6) were inoculated s.c. into the flanks of NOD/SCID mice. When tumors were palpable, animals (n = 10–20 mice per group, as indicated) were randomized to receive either DDA (20 mg/kg) intraperitoneally (i.p.) or 40 mg/kg by oral gavage (p.o), once a day, or vehicle solvent for the indicated time. Animals were examined daily and body weights were measured twice a week. In all experiments, tumor volume was determined by direct measurement with a caliper and was calculated using the formula (width^2 × length)/2. At the end of experiments, mice were sacrificed and tumors were excised and divided for intra-tumoral DDA quantification, immunoblotting, or immunohistochemistry analyses.

in vivo = experiment: in vivo; parameters: species or system NSG mice; settings: mouse, 20 mg/kg
Method: Administration R oute p.o. i. p. i. v.
T 1/2 distribution (h) - - 0.11*** […]
Bars represent S.E.M. ( ***P<0.001, **P<0.01, t test).
(also on this page, place not known: plasma times treatment mice administration plasma times treatment mice administration mg/kg mg/kg Summary pharmacokinetic parameters mice. were measured daily administration mg/kg days. (***P<0.001, mg/kg DDA in plasma (p.o.) (p.o.) DDA in plasma (µM) i.p. i.v. (mg/kg) 20 T1/2 0.1 T1/2 elimination 1.0 T1/2 - Bioavailability (%EP) (µM) 370 Tmax 0.002 marrow 0.01 0.1 1 10 Control DDA DDA level (µM) ***)

[1] = test system: normal hematopoietic progenitor cells; experiment: Normal human CD34+ cells engrafted into NSG mice; format: in vivo; settings: human BM CD34+ engrafted into NSG mice; 20 mg/kg/day i.p., 3 weeks
Description: (§1) AML patient and normal bone marrow samples were obtained from patients in the Hematology Department of Toulouse (France), after obtaining consent in accordance with the Declaration of Helsinki[67], and according to institutional guidelines. Samples were stored at the INSERM-1037 HIMIP collection (no. DC-2008-307-CPTP1 HIMIP). For some experiments, fresh leukemic blasts recovered at diagnosis were immediately treated with DDA. In other cases, frozen cells were thawed in IMDM medium with 20% FBS. Patient characteristics are shown in supplementary data 1. Normal bone marrow cells were subjected to Ficoll-Paque density gradient separation to isolate mononuclear cells, followed by CD34+ cell separation using high-gradient magnetic-activated cell sorting, according to the manufacturer’s manual. The in vivo assays were performed with cryopreserved cells.
The engraftment of human primary AML cells was performed on NSG mice. […] Two and a half weeks after the injection of human cells, mice were treated with DDA (20 mg/kg/day by IP injection) or vehicle as control for 2, 3 weeks, after which the engraftment of human AML and normal hematopoietic cells was measured in the bone marrow, spleen and brain by quantifying the percentage of hCD45+CD33+ cells by flow cytometry. The viability of AML cells was established by quantifying the percentage of hCD45+CD33+Annexin-V- cells.

primary AML cells = experiment: Immunoblot densitometry in primary AML cells; format: cell-based, human; settings: 5 µM DDA, 24 h
Method: Immunoblotting was carried out as described previously. Proteins were separated on SDS-PAGE gels, electro-transferred onto polyvinylidene difluoride membranes and incubated overnight at 4 °C with the following antibodies: anti-Atg3, anti-Atg5 (D1G9), anti-Atg7 (D12B11), anti-Beclin (D40C5), anti-caspase-3 (Cell Signaling), anti-Bcl-2 (Millipore), anti-Bax (Millipore), anti-LC3 (Sigma-Aldrich), anti-LXRα (SantaCruz), anti-LXRβ (SantaCruz), anti-Nur77 (Active motif), anti-NOR1 (R&D systems), anti-PARP (Cell Signaling), anti-Vps34 (Cell Signaling), or anti-Actin (Millipore). For visualization, an ECL plus kit (Amersham Biosciences) was used, and chemiluminescence was measured by autoradiography (Supplementary Fig. 9). Specific bands were quantified with ImageQuant software.
as §1, with “cells. […]” for “cells.”
All data or images are
representative of 3 independent experiments.

## CC(C)CCC[C@@H](C)[C@H]1CC[C@H]2[C@@H]3C[C@@H](NCCc4cnc[nH]4)[C@@]4(O)C[C@@H](O)CC[C@]4(C)[C@H]3CC[C@]12C [DDA, Dendrogenin A]
HL60 cells; 20 mg/kg/day i.p.
  reduction of the number of HL60 cells in bone marrow and brain: 60.5 ± 11%
  reduction of HL60 cell viability in bone marrow and brain: 21.9 ± 6%
HL60 cells; 40 mg/kg/day p.o.
  reduction of the number of HL60 cells in bone marrow and brain: 47 ± 9%
  reduction of HL60 cell viability in bone marrow and brain: 17.3 ± 5%
HL60 cells; 40 mg/kg/day p.o., after disease establishment
  overall survival of HL60-engrafted mice: significantly improved the survival
SKMEL-28 tumors
  tumor growth: significantly reduced the growth
In vivo; NSG, ip
  Cmax: 6.1 ± 0.95 µM
  Plasma clearance: 28 mL/min/kg
  Tmax: 2 h
In vivo; NSG, ip, T1/2 absorption
  half-life: 19 h
In vivo; NSG, ip, T1/2 elimination
  half-life: 0.9 h
In vivo; NSG, iv
  Cmax: 370 µM
  Tmax: 0.002 h
  clearance: 27 mL/min/kg
In vivo; NSG, iv, T1/2 distribution
  half-life: 0.1 h
In vivo; NSG, iv, T1/2 elimination
  half-life: 0.6 h
In vivo; NSG, po
  Cmax: 5.05 µM
  Plasma clearance: 26.2 mL/min/kg
  Tmax: 3 h
In vivo; NSG, po, T1/2 absorption
  half-life: 43 h
In vivo; NSG, po, T1/2 elimination
  half-life: 1 h
In vivo; iv
  Bioavailability: 100 % EP
[1]
  effect on normal hematopoietic progenitor cells: no effect
Primary AML cells; AML#4
  LC3-II protein, densitometry relative to vehicle: 3.4
  LXRβ protein, densitometry relative to vehicle: 0.9
  NOR1 protein, densitometry relative to vehicle: 2
  Nur77 protein, densitometry relative to vehicle: 1.4
Primary AML cells; AML#5
  LC3-II protein, densitometry relative to vehicle: 3
  LXRβ protein, densitometry relative to vehicle: 0.7
  NOR1 protein, densitometry relative to vehicle: 2.2
  Nur77 protein, densitometry relative to vehicle: 1.7

— paper PMC5712521, “Dendrogenin A drives LXR to trigger lethal autophagy in cancers” (Nature Communications, 2017)
